Measured values as given in patent US20210188843A1, “QUINOLINE COMPOUNDS AND THEIR PREPARATION AND USE AS ANTIMALARIAL AGENTS” (The United States of America,as represented by the …, priority 2018, published 2021).
pEC50: −log10 of the molar value. Values after ≈ are worked out from the molar mass of the structure shown.

Experiments:
[1] = Microsomal stability (rat); assay type: in vitro ADME; details: rat microsomes, Table 1, read-out: Microsomal Stability (rat) T1/2
PAMPA permeability = assay type: in vitro ADME; details: Table 1
[2] = system: Asexual parasites of P. falciparum strain 3D7; assay: In vitro drug activity on asexual parasites (SYBR Green assay); assay type: cell-based; details: Plasmodium falciparum; Table 1; P. falciparum 3D7 asexual stage, 72 h; read-out: Asexual EC50
How it was run: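 3D7 asexual cultures at 0.5% parasitemia and 2% hematocrit were exposed to drug (DMSO <0.5%) for 72 h under standard culture conditions, in duplicate with no-drug and RBC-only controls. After freeze-thaw lysis, SYBR Green I lysis buffer was added for 30 min at room temperature; fluorescence was read at 490 nm excitation/520 nm emission.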

Solubility pH 7.4 = assay type: physicochemical; details: aqueous buffer, Table 1

Row | Compound | half-life [1] [min] | Papp (PAMPA permeability) [×10⁻⁶ cm/s] | pEC50 [2] | solubility (Solubility pH 7.4) [µg/mL]
1 | Cn1c(=N)n(-c2cccc(F)c2)c2c3cc(-c4ccc(Cl)cc4)ccc3ncc21 [Compound 78, 8-(4-chlorophenyl)-1-(3-fluorophenyl)-3-methyl-1,3-dihydro-2H-imidazo[4,5-c]quinolin-2-imine] | > 30 | 629 | 6.51 | < 1
2 | Cn1c(=N)n(-c2cccc(O)c2)c2c3cc(-c4ccc(Cl)cc4)ccc3ncc21 [Compound 79, 3-(8-(4-chlorophenyl)-2-imino-3-methyl-2,3-dihydro-1H-imidazo[4,5-c]quinolin-1-yl)phenol] | > 30 | 42 | 5.85 | 9.7 (≈ 24.2 µM)
3 | Cc1ccc(C#N)cc1-n1c(=N)n(C)c2cnc3ccc(-c4ccccc4O)cc3c21 [Compound 86, 3-(8-(2-hydroxyphenyl)-2-imino-3-methyl-2,3-dihydro-1H-imidazo[4,5-c]quinolin-1-yl)-4-methylbenzonitrile] | > 30 | 7.9 | 6.16 | > 40
4 | Cc1ccc(C#N)cc1-n1/c(=N/S(N)(=O)=O)n(C)c2cnc3ccc(-c4ccc(Cl)cc4)cc3c21 [Compound 100, (8-(4-chlorophenyl)-1-(5-cyano-2-methylphenyl)-3-methyl-1,3-dihydro-2H-imidazo[4,5-c]quinolin-2-ylidene)sulfonamide] | > 30 | 236 | 7.89 | < 1
5 | Cc1ccc(C#N)cc1-n1c(=N)n(C)c2cnc3ccc(-c4cnc5ccccc5c4)cc3c21 [Compound 105, 3-(2-imino-3-methyl-8-(quinolin-3-yl)-2,3-dihydro-1H-imidazo[4,5-c]quinolin-1-yl)-4-methylbenzonitrile] | > 30 | 1150 | 6.15 | > 44
6 | Cc1ccc(C#N)cc1-n1c(=N)n(C)c2cnc3ccc(-c4ccc(OCCCN(C)C)nc4)cc3c21 [Compound 106, 3-(8-(6-(3-(dimethylamino)propoxy)pyridin-3-yl)-2-imino-3-methyl-2,3-dihydro-1H-imidazo[4,5-c]quinolin-1-yl)-4-methylbenzonitrile] | > 30 | 1.2 | 6.85 | > 49
7 | Cc1cc(N2CCN(C)CC2)c(C#N)cc1-n1c(=N)n(C)c2cnc3ccc(-c4ccc(Cl)cc4)cc3c21 [Compound 108, 5-(8-(4-chlorophenyl)-2-imino-3-methyl-2,3-dihydro-1H-imidazo[4,5-c]quinolin-1-yl)-4-methyl-2-(4-methylpiperazin-1-yl)benzonitrile] | > 30 | 255 | 6.33 | 37.6 (≈ 72 µM)
8 | CC(=O)N1CCN(c2cc(C)c(-n3c(=N)n(C)c4cnc5ccc(-c6ccc(Cl)cc6)cc5c43)cc2C#N)CC1 [Compound 109, 2-(4-acetylpiperazin-1-yl)-5-(8-(4-chlorophenyl)-2-imino-3-methyl-2,3-dihydro-1H-imidazo[4,5-c]quinolin-1-yl)-4-methylbenzonitrile] | > 30 | 838 | 8.36 | < 1
9 | Cc1cc(N2CCCCC2)c(C#N)cc1-n1c(=N)n(C)c2cnc3ccc(-c4ccc(Cl)cc4)cc3c21 [Compound 112, 5-(8-(4-chlorophenyl)-2-imino-3-methyl-2,3-dihydro-1H-imidazo[4,5-c]quinolin-1-yl)-4-methyl-2-(piperidin-1-yl)benzonitrile] | > 30 | 1280 | 5.74 | < 1
10 | Cc1ccc(C#N)cc1-n1/c(=N/S(N)(=O)=O)n(C)c2cnc3ccc(-c4cccc(F)c4)cc3c21 [Compound 116] | 17.9 | 1070 | 7.56 | < 1
11 | CC(=O)N1CCN(c2nc(C)c(-n3c(=N)n(C)c4cnc5ccc(-c6ccc(Cl)cc6)cc5c43)cc2C#N)CC1 [Compound 130, 2-(4-acetylpiperazin-1-yl)-5-(8-(4-chlorophenyl)-2-imino-3-methyl-2,3-dihydro-1H-imidazo[4,5-c]quinolin-1-yl)-6-methylnicotinonitrile] | 20.2 | 112 | 7.65 | > 54
12 | CC(=O)NC1CCN(c2cc(C)c(-n3c(=N)n(C)c4cnc5ccc(-c6ccc(Cl)cc6)cc5c43)cc2C#N)CC1 [Compound 132, N-(1-(4-(8-(4-chlorophenyl)-2-imino-3-methyl-2,3-dihydro-1H-imidazo[4,5-c]quinolin-1-yl)-2-cyano-5-methylphenyl)piperidin-4-yl)acetamide] | > 30 | 7 | 7.26 | 4.6 (≈ 8.15 µM)
13 | Cc1ccc(C#N)cc1-n1c(=N)n(C)c2cnc3ccc(-c4cnn(C)c4)cc3c21 [Compound 136, 3-(2-imino-3-methyl-8-(1-methyl-1H-pyrazol-4-yl)-2,3-dihydro-1H-imidazo[4,5-c]quinolin-1-yl)-4-methylbenzonitrile] | > 30 | 89.5 | 7.25 | 40.4 (≈ 103 µM)

Continued by rising pEC50 [2], values first:

Row | half-life [1] [min] | Papp (PAMPA permeability) [×10⁻⁶ cm/s] | pEC50 [2] | solubility (Solubility pH 7.4) [µg/mL] | Compound
14 | > 30 | 4.6 | 4.90 | > 48 | CC(=O)N1CCN([C@H]2C[C@H](n3c(=N)n(C)c4cnc5ccc(-c6ccc(Cl)cc6)cc5c43)C2)CC1 [Compound 129, 1-(4-((1r,3r)-3-(8-(4-chlorophenyl)-2-imino-3-methyl-2,3-dihydro-1H-imidazo[4,5-c]quinolin-1-yl)cyclobutyl)piperazin-1-yl)ethan-1-one]
15 | > 30 | 128 | 5.79 | < 1 | Cc1ccc(C#N)cc1-n1/c(=N/C(=O)OC(C)(C)C)n(C)c2cnc3ccc(-c4ccc(Cl)cc4)cc3c21 [Compound 88, tert-butyl (E)-(8-(4-chlorophenyl)-1-(5-cyano-2-methylphenyl)-3-methyl-1,3-dihydro-2H-imidazo[4,5-c]quinolin-2-ylidene)carbamate]
16 | > 30 | 11.2 | 6.15 | > 48 | Cn1c(=N)n(-c2cccc(CN3CCNCC3)c2)c2c3cc(-c4ccc(Cl)cc4)ccc3ncc21 [Compound 85, 8-(4-chlorophenyl)-3-methyl-1-(3-(piperazin-1-ylmethyl)phenyl)-1,3-dihydro-2H-imidazo[4,5-c]quinolin-2-imine]
17 | > 30 | 1370 | 6.37 | > 39 | Cc1ccc(C#N)cc1-n1c(=N)n(C)c2cnc3ccc(-c4ccccn4)cc3c21 [Compound 91, 3-(2-imino-3-methyl-8-(pyridin-2-yl)-2,3-dihydro-1H-imidazo[4,5-c]quinolin-1-yl)-4-methylbenzonitrile]
18 | > 30 | 176 | 6.43 | < 1 | Cc1cc(N2CCC2)c(C#N)cc1-n1c(=N)n(C)c2cnc3ccc(-c4ccc(Cl)cc4)cc3c21 [Compound 110, 2-(azetidin-1-yl)-5-(8-(4-chlorophenyl)-2-imino-3-methyl-2,3-dihydro-1H-imidazo[4,5-c]quinolin-1-yl)-4-methylbenzonitrile]
19 | > 30 | 6.2 | 6.83 | 1.3 (≈ 2.5 µM) | Cc1cc(N2CC3(COC3)C2)c(C#N)cc1-n1c(=N)n(C)c2cnc3ccc(-c4ccc(Cl)cc4)cc3c21 [Compound 121, 5-(8-(4-chlorophenyl)-2-imino-3-methyl-2,3-dihydro-1H-imidazo[4,5-c]quinolin-1-yl)-4-methyl-2-(2-oxa-6-azaspiro[3.3]heptan-6-yl)benzonitrile]
20 | > 30 | 95.6 | 7.24 | < 1 | COC(=O)/N=c1\n(C)c2cnc3ccc(-c4ccc(Cl)cc4)cc3c2n1-c1cc(C#N)ccc1C [Compound 87, methyl (E)-(8-(4-chlorophenyl)-1-(5-cyano-2-methylphenyl)-3-methyl-1,3-dihydro-2H-imidazo[4,5-c]quinolin-2-ylidene)carbamate]
21 | > 30 | 1260 | 7.37 | 3.6 (≈ 8.49 µM) | Cc1ccc(C#N)cc1-n1c(=N)n(C)c2cnc3ccc(-c4ccc(Cl)cc4)cc3c21 [Compound 137, 3-(8-(4-chlorophenyl)-2-imino-3-methyl-2,3-dihydro-1H-imidazo[4,5-c]quinolin-1-yl)-4-methylbenzonitrile]
22 | > 30 | 397 | 7.57 | < 1 | Cc1cc(C#N)c(C#N)cc1-n1c(=N)n(C)c2cnc3ccc(-c4ccc(Cl)cc4)cc3c21 [Compound 135, 4-(8-(4-chlorophenyl)-2-imino-3-methyl-2,3-dihydro-1H-imidazo[4,5-c]quinolin-1-yl)-5-methylphthalonitrile]
23 | 22.9 | 22.6 | 7.89 | > 42 | Cc1ccc(C#N)cc1-n1c(=N)n(C)c2cnc3ccc(-c4ccc5[nH]ncc5c4)cc3c21 [Compound 107, 3-(2-imino-8-(1H-indazol-5-yl)-3-methyl-2,3-dihydro-1H-imidazo[4,5-c]quinolin-1-yl)-4-methylbenzonitrile]
24 | > 30 | 243 | 8.92 | 12.5 (≈ 27 µM) | COC(=O)/N=c1\n(C)c2cnc3ccc(-c4ccc(C)nc4)cc3c2n1-c1cc(C#N)ccc1C [Compound 125, methyl (E)-(1-(5-cyano-2-methylphenyl)-3-methyl-8-(6-methylpyridin-3-yl)-1,3-dihydro-2H-imidazo[4,5-c]quinolin-2-ylidene)carbamate]
